The values below come from the SangsterLogP compilation.

This data set in a line: method code G-GLC, from Larsen, B. R., Skejo-Andreasen, H., & Pérez, A. P. (1992). Octanol-water partition coefficients of 39 polychlorinated biphenyls in an Askarel mixture. Fresenius Envir. Bull. I (Supplementum), S13-18.
Regarding `Clc1ccc(Cl)c(-c2cc(Cl)ccc2Cl)c1`, the logP came out at 5.81. For the molecule `Clc1cc(Cl)c(-c2cccc(Cl)c2Cl)cc1Cl`, the logP stood at 6.28. The value for `Clc1ccc(Cl)c(-c2ccc(Cl)c(Cl)c2)c1` was 5.99; that for `Clc1ccc(Cl)c(-c2c(Cl)c(Cl)cc(Cl)c2Cl)c1` was 6.45. `Clc1ccc(Cl)c(-c2c(Cl)ccc(Cl)c2Cl)c1`: the logP stood at 6.08. On to `Clc1cc(Cl)c(-c2c(Cl)ccc(Cl)c2Cl)c(Cl)c1Cl`, for which the logP stood at 6.76. For the molecule `Clc1ccc(-c2c(Cl)ccc(Cl)c2Cl)cc1Cl`, the logP stood at 6.22. For the molecule `Clc1ccc(-c2ccc(Cl)c(Cl)c2Cl)c(Cl)c1Cl`, the logP came out at 6.62.

`Clc1ccc(-c2ccc(Cl)c(Cl)c2Cl)cc1`: the logP worked out at 5.95.

With `Clc1ccc(-c2cccc(Cl)c2Cl)cc1`, the logP was determined as 5.63.

A word on the logP: it is the decadic logarithm of the partition coefficient of the neutral form, usually between octanol and water.
